Measured values published in patent US20030032640A1, “Novel composition” (priority 2000, published 2003).
Structures can show the parent of a compound that is named as a salt.

Columns and labels:
[1] = Particle size (DV 90/50/10) of batches of SB-207266-A made by the Description 1 process; format: physicochemical; settings: for DV 10 / DV 50 / DV 90: individual batch, hydrochloride; for DV 10: 10% by volume of the material is less than this size; for DV 50: 50% by volume of the material is less than this size; for DV 90: 90% by volume of the material is less than this size
Text: The first aspect of the newly recognised problem is that such processes produce the SB 207266 hydrochloride salt in the form of particles of extremely small particle size.
DV 90, DV 50 and DV 10 respectively mean that 90%, 50% and 10% by volume of the material is less than the micron size specified.

[2] = Cohesiveness and flowability of drug substance and granules; format: physicochemical; settings: HCl salt crystallised from ethanol/IMS with C5-C10 hydrocarbon
Text: The second aspect of the newly recognised problem, is the discovery that the SB 207266 HCl salt produced by these processes is very cohesive and has poor flowability/flow characteristics.

[3] = Bulk density of the small-particle size HCl salt; format: physicochemical; settings: densifies on addition of water
Text: The fourth aspect of the newly recognised problem is that the small-particle size SB-207266 HCl salt has a low bulk density, densifying on the addition of water. This means that less material can be added to a mixer of fixed volume, leading to a less efficient manufacturing process as large volumes of equipment have to be used for relatively small volumes of drug (smaller throughput in plant).

5HT4 receptor = 5HT4 receptor (Homo sapiens, UniProt Q13639); settings: from the cited literature; cited from earlier work
Chain of 5HT4 receptor (Q13639 whole entry): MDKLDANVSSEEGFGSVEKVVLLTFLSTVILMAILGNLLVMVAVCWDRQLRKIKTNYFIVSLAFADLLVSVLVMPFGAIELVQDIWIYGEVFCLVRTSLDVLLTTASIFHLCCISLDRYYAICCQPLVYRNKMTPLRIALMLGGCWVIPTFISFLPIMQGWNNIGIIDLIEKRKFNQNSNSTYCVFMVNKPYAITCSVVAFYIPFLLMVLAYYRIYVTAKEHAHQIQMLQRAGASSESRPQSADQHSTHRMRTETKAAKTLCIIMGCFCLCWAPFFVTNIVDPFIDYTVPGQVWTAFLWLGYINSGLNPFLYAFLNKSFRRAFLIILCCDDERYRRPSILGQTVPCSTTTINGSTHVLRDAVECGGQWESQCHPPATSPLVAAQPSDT

## CCCCN1CCC(CNC(=O)c2c3n(c4ccccc24)CCCO3)CC1 [SB-207266-A, N-[(1-butyl-4-piperidinyl)methyl]-3,4-dihydro-2H-[1,3]-oxazino[3,2-α]indole-10-carboxamide hydrochloride]
[1]; average of the five batches
  DV 10, average of batches: 1.5 μm
  DV 50, average of batches: 5.8 μm
  DV 90, average of batches: 14.4 μm
[1]; listed as BDC-G-02C
  DV 10: 1.5 μm
  DV 50: 5.7 μm
  DV 90: 13.8 μm
[1]; listed as BDC-G-03C
  DV 10: 1.8 μm
  DV 50: 6.8 μm
  DV 90: 16.4 μm
[1]; listed as BDC-G-04C
  DV 10: 1.4 μm
  DV 50: 5.3 μm
  DV 90: 14.4 μm
[1]; listed as BDC-G-05C
  DV 10: 1.5 μm
  DV 50: 5.8 μm
  DV 90: 14.6 μm
[1]; listed as BDC-H-01C
  DV 10: 1.4 μm
  DV 50: 5.3 μm
  DV 90: 12.8 μm
[2]
  cohesiveness: very cohesive
  flowability/flow characteristics: poor
[3]
  bulk density: low

## CCCCN1CCC(CNC(=O)c2c3n(c4ccccc24)CCCO3)CC1 [SB 207266, N-[(1-^nbutyl-4-piperidinyl)methyl]-3,4-dihydro-2H-[1,3]oxazino[3,2-a]indole-10-carboxamide]
5HT4 receptor
  selectivity for the 5HT4 receptor over other 5HT receptors: highly selective
